The text below walks through data of US20210332073A1, “PROCESS FOR THE PREPARATION OF FERRIC CITRATE” (priority 2020, published 2021).

This data set can be described thus: Specific surface area of isolated ferric citrate. Format: physicochemical. Conditions: vacuum dried at 30-40° C.

Structures are written as SMILES. Counter-ions that a name gives are not always drawn.

As for `O=C1CC2(O)CC(=O)[O][Fe]([O]1)[O]C2=O` [Example-3, ferric citrate], the specific surface area result (Method B: two lots combined, sieve BSS 200/75 micron) was “above 16 sq. m/g”. Consider `O=C1CC2(O)CC(=O)[O][Fe]([O]1)[O]C2=O` [Ferric citrate, iron (+3), x (1,2,3-propanetricarboxylic acid, 2-hydroxy-), y (H2O)], for which the specific surface area result (Method A step c: acetone dumped in one lot, 20 mesh sieve) is “above 20 m^2/g”.
